Test results taken from patent US10220005B2 (GW Research Limited, priority 2012, dated 2019).

Assays:
[1] = system: interleukin 1; test: Piglet model of HI, interleukin 1 in brain tissue by microarrays; assay type: in vivo; conditions: piglets
Protocol: (§1) A piglet model of HI was used as described in (Alvarez et al. 2008). Briefly, an HI insult is induced in anesthetized 1-3 day-old piglets by occluding both carotid arteries and decreasing inspired oxygen from 21 to 10% for 30 min.
(§2) Thirty minutes after the recovery of HI the test compound was administered via the i.v. route.
(§3) At the end of the experiment, piglets are euthanized and the brain removed; one hemisphere was immediately frozen and stored at −80 ° C. whereas the other one was preserved in 4% paraformaldehide. A sample of frozen brain was obtained to perform a proton magnetic resonance spectroscopy (H+-MRS). Similarly managed piglets but without HI served as controls.

[2] = system: piglet model of HI; test: Piglet model of HI, Nissl staining of brain slices (Example 1); assay type: in vivo; conditions: piglets; for effect of co-administered antagonist on the CBD-induced reduction of neuronal death: given with CBD 1 mg/kg i.v., AM630 1 mg/kg, WAY100635 0.1 mg/kg, caffeine 10 mg/kg
Protocol: as §1, §2, §3

[3] = system: rat model of HI; test: Rat model of HI, neurobehavioral tests (rotarod, cylinder, novel object); assay type: in vivo, Wistar rats; conditions: rats, CBD 1 mg/kg s.c. single dose, tests at day 35
Protocol: (§4) A rat model of HI was used as described by (Fernandez-Lopez et al., 2007). Briefly, an HI insult is induced in 7-10 day-old Wistar rats by electro-coagulating the left carotid artery under anaesthesia following by the exposure to 10% oxygen for 120 min.
Sham operated pups without hypoxia served as controls, and were treated with vehicle or CBD as indicated. The pups were then returned to their dams.
At day 35 rats underwent neurobehavioral tests: rotarod (to test coordination), cylinder (to test unilateral deficits) and novel object preference (to test memory impairments).

[4] = system: rat model of HI; test: Rat model of HI, magnetic resonance imaging of brain lesion; assay type: in vivo, Wistar rats; conditions: rats, CBD 1 mg/kg s.c. single dose, one month later (P37)
Protocol: as §4
The pups were then returned to their dams.
Rats were then euthanized and the brain removed and stored in 4% paraforlmadehide. Magnetic resonance imaging was performed on the brains to evaluate the damaged area. In some rats, MRI was performed 7 days after HI.

COc1ccc(C(=O)c2c(C)n(CCN3CCOCC3)c3cc(I)ccc23)cc1 [AM]
effect of co-administered antagonist on the CBD reduction of IL-1 production ([1]; given with CBD 1 mg/kg i.v., AM630 1 mg/kg, WAY100635 0.1 mg/kg, caffeine 10 mg/kg): blunted | effect of co-administered antagonist on the CBD-induced reduction of neuronal death [2]: blunted

C=C(C)[C@@H]1CCC(C)=C[C@H]1c1c(O)cc(CCCCC)cc1O [CBD, cannabidiol]
coordination (RotaRod) [3]: normalization | memory (novel object recognition) [3]: normalization | motor performance (cylinder rear test) [3]: normalization | production of IL-1 (concentration of interleukin 1 in brain tissue) ([1]; CBD 1 mg/kg i.v., 6 h after HI, microarrays): reduces | percentage of necrotic tissue in both the cortex and the hippocampus ([2]; CBD 1 mg/kg i.v. 30 min after HI, brain tissue 6 h after HI): reduces | volume of lesion (MRI; printed as brain volume) [4]: significantly reduced

COc1ccccc1N1CCN(CCN(C(=O)C2CCCCC2)c2ccccn2)CC1 [WAY]
effect of co-administered antagonist on the CBD-induced reduction of neuronal death [2]: blunted

Cn1c(=O)c2c(ncn2C)n(C)c1=O [caffeine, Caffeine]
effect of co-administered antagonist on the CBD-induced reduction of neuronal death [2]: not by caffeine
